These results are taken from patent US4873253A, “Phenylalanine derivative and proteinase inhibitor” (Okamoto; Shosuke, priority 1987, dated 1989).

Assay [1] concerns the target T1, human plasmin (Homo sapiens, UniProt P00747). Nature of the assay: Antiplasmin activity: inhibition of S-2251 decomposition. The assay is classed as biochemical. The settings on record: Table 2; substrate S-2251, pH 7.4, 37° C. How it is done:
An inhibitor sample is dissolved in a 0.05 M Tris-hydrochloric acid buffer solution (pH=7.4) to make the total volume to 400 μl. […] Then, 50 μl of a 0.2 casein unit/ml human plasmin is added and the mixture is incubated at a temperature of 37° C. for 4 minutes. Thereafter, the reaction is stopped by adding 50 μl of 50% acetic acid.
Thus, the concentration I50 (μmol) of the inhibitor sample, at which the absorbance is one half (i.e., 1/2) of that obtained in the absence of the inhibitor, is determined.

The target of assay [2] is T1, human plasmin. Nature of the assay: Antiplasmin activity: inhibition of fibrin decomposition. Type of assay: biochemical. The settings on record: Table 2, pH 7.4, 37° C., read-out: Plasmin Fibrin I50 (concentration doubling fibrin dissolution time). On the procedure:
(i) Determination of inhibition activity for fibrin decomposition
An inhibitor sample is dissolved in a 0.18 M borate-physiological salt buffer solution (pH=7.4) to make the total volume to 600 μl. To this buffer solution, 200 μl of a 0.2% bovine fibrinogen, 100 μl of a 0.3 casein unit/ml human plasmin solution, and 100 μl of a 50 unit/ml bovine thrombin solution, all dissolved in the above-mentioned buffer, are added at a temperature of 37° C. in a constant temperature bath. Then, the dissolution time of the fibrin mass formed above is determined.

The target in another assay is T2, bovine thrombin (Bos taurus, UniProt P00735).
T2 construct: a 0.2 unit/ml bovine thrombin solution
Description: Antithrombin activity: inhibition of fibrin formation (fibrinogen). Type of assay: biochemical. On the procedure: (i) Determination of inhibition activity against fibrin formation
An inhibitor sample is dissolved in a 0.18 M borate-physiological salt buffer solution (pH= 7.4) to make the total volume to 500 μl. […] Thus, a coagulation time is determined. The inhibitor concentration I50 (μmol), at which the coagulation time obtained in the absence of the inhibitor is extended twice, is determined.

Another assay deals with T3, bovine trypsin (Bos taurus, UniProt P00760).
T3 sequence (P00760 24-246): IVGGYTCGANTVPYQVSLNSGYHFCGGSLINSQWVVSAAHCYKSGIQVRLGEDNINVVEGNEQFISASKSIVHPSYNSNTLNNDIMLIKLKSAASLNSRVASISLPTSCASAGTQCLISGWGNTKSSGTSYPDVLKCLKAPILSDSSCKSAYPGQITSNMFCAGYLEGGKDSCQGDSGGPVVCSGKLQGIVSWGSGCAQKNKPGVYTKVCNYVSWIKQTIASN
Description: Antitrypsin activity: inhibition of S-2238 decomposition. Type of assay: biochemical. The settings on record: Table 2; substrate S-2238, pH 8.1, 37° C.; read-out: Trypsin S-2238 I50. On the procedure:
Determination of inhibition activity against S-2238 decomposition
An inhibitor sample is dissolved in a 0.05 M Tris-imidazole buffer solution (pH=8.1) and 125 μl of a 1 mM S-2238 solution is added to make the total volume to 1.20 ml. The mixture is incubated at a temperature of 37° C. for 5 minutes in a constant temperature bath. To this mixture, 0.05 ml of bovine trypsin is added and the absorbance, at 405 nm, of the p-nitroaniline formed per minute is determined at a temperature of 37° C. by using the so-called initial velocity method. Thus, the concentration I50 (μmol) of a inhibitor sample, at which the absorbance is one half (i.e., 1/2) of that obtained in the absence of the inhibitor sample, is determined.

A further assay addresses human plasma kallikrein (Homo sapiens, UniProt P03952). Nature of the assay: Anti-plasma kallikrein activity: inhibition of S-2302 decomposition. Type of assay: biochemical. Particulars: Table 2; substrate S-2302, pH 7.8, 37° C.; read-out: Plasma Kallikrein S-2302 I50. On the procedure:
Determination of inhibition activity for S-2302 decomposition
(§1) An inhibitor sample is dissolved in a 0.05 M Tris-hydrochloric acid buffer solution (pH=7.8) to make the total volume to 400 μl. To this solution, 50 μl of a 2 mM S-2302 solution is added and the mixture is incubated at a temperature of 37° C. for 5 minutes in a constant temperature bath. Then, 50 μl of a 0.12 unit/ml human plasma kallikrein is added and the mixture is incubated at a temperature of 37° C. for 5 minutes. Thereafter, 50 μl of 50% acetic acid is added to terminate the reaction. The absorbance of the p-nitroaniline formed in the reaction mixture is measured at 405 nm. Thus, the concentration I50 (μmol) of the inhibitor sample, at which the absorbance is one half (i.e., 1/2) of that obtained in the absence of the inhibitor sample, is determined.

A further assay concerns the target human urokinase (Homo sapiens, UniProt P00749). Nature of the assay: biochemical. Particulars: read-out: Urokinase S-2444 I50. On the procedure: Determination of inhibition activity for S-2444 decomposition
as §1, with “solution (pH=8.8)” for “solution (pH=7.8)”, “a 1” for “a 2”, “mM S-2444” for “mM S-2302”, “a 500” for “a 0.12”, “human urokinase” for “human plasma kallikrein”

Where [3] appears, read: Table 2, bovine fibrinogen, pH 7.4, 37° C., read-out: Thrombin Fibrinogen I50 (concentration doubling coagulation time).
Where [4] appears, read: Table 2, substrate S-2444, pH 8.8, 37° C.

Structures can show the parent of a compound that is named as a salt. Where two headings read alike, the source gives them in different places.

Sequence of human plasma kallikrein (P03952 391-638 limits assumed): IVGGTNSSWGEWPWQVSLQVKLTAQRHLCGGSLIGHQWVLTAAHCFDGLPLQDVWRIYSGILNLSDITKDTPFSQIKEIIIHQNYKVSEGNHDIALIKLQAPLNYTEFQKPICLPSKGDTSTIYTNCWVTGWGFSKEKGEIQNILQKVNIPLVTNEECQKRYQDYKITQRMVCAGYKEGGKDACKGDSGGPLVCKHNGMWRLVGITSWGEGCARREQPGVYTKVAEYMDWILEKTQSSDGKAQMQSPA
Sequence of human plasma kallikrein (P03952 20-390 limits assumed): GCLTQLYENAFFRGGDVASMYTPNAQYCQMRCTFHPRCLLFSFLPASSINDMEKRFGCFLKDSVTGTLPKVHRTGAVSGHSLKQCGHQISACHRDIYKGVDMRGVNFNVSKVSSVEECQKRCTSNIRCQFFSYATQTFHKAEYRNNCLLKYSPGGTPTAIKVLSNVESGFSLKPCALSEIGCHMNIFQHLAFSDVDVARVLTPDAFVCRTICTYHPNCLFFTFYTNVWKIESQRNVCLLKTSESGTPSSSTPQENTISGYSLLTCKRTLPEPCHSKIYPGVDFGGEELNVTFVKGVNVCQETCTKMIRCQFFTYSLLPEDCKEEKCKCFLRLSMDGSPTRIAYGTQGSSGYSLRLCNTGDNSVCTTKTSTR
T1 sequence (P00747 581-810 limits assumed): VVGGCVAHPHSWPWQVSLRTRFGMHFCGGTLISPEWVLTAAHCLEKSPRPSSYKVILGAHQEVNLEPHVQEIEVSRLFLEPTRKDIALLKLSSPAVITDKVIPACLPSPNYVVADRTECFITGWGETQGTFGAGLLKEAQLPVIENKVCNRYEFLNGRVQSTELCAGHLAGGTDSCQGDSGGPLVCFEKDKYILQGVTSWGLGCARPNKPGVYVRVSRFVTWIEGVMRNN
T1 sequence (P00747 97-580 limits assumed): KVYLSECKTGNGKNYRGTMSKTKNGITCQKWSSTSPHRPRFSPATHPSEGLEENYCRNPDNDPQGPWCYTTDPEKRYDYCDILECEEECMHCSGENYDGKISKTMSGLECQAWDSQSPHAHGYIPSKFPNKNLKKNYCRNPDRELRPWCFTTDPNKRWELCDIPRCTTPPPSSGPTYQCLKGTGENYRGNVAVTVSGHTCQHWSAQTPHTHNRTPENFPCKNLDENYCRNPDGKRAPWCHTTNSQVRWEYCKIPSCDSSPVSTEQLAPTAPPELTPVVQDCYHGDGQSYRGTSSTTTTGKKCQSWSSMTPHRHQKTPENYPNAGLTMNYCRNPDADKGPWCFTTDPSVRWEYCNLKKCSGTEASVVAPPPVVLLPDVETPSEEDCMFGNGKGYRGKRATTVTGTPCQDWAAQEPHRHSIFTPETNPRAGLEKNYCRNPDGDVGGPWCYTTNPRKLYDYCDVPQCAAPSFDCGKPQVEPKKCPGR

`N=C(N)c1ccc(NC(=O)C(Cc2cccc(Oc3ccccc3)c2)NC(=O)[C@H]2CC[C@H](CN)CC2)cc1` (mixture of isomers) [Compound 5, N-(trans-4-aminomethylcyclohexylcarbonyl)-3-phenoxy-DL-phenylalanine-4-amidinoanilide dihydrochloride]: the IC50 is 22 µM against human plasmin [1]; 12 µM on human plasmin [2]; more than 100 µM at bovine thrombin (setting [3]); 2.5 µM on bovine trypsin; 8.7 µM at human plasma kallikrein; 38 µM on human urokinase (setting [4]).
`COCCCNC(=O)C(Cc1cccc(Oc2ccccc2)c1)NC(=O)[C@H]1CC[C@H](CN)CC1` (mixture of isomers) [Compound 14, N-(trans-4-amnomethylcyclohexylcarboonyl)-3-phenoxy-DL-phenylalanine 3-methoxypropylamide hydrochloride]: the IC50 against human plasmin [1] is 940 µM; on human plasmin [2] it was 340 µM; on bovine thrombin (setting [3]), more than 500 µM; on bovine trypsin, 100 µM; at human plasma kallikrein it was 340 µM; at human urokinase (setting [4]), more than 500 µM.
On to `NC[C@H]1CC[C@H](C(=O)NC(Cc2cccc(Oc3ccccc3)c2)C(N)=O)CC1` (mixture of isomers) [Compound 21, N-(trans-4-aminomethylcyclohexylcarbonyl)-3-phenoxy-DL-phenylalanine amide hydrochloride], for which the IC50 against human plasmin [1] was 320 µM; on human plasmin [2], 150 µM; against bovine thrombin, more than 200 µM; on bovine trypsin, more than 150 µM; at human plasma kallikrein, more than 400 µM; on human urokinase (setting [4]), more than 1000 µM.
Regarding `NC[C@H]1CC[C@H](C(=O)NC(Cc2cccc(C(F)(F)F)c2)C(=O)N2CCOCC2)CC1` (mixture of isomers) [Compound 29, N-(trans-4-aminomethylcyclohexylcarbonyl)-3-trifluoromethyl-DL-phenylalanine morpholinoamide hydrochloride], the IC50 is more than 1000 µM against human plasmin [1]; more than 1000 µM at human plasmin [2]; more than 1000 µM on bovine thrombin; more than 150 µM on bovine trypsin; more than 1000 µM on human plasma kallikrein; more than 1000 µM at human urokinase (setting [4]).
In the case of `NC[C@H]1CC[C@H](C(=O)NC(Cc2cccc(Oc3ccccc3)c2)C(=O)Nc2ccncn2)CC1` (mixture of isomers) [Compound 12, N-(trans-4-aminomethylcyclohexylcarbonyl)-3-phenoxy-DL-phenylalanine 4-pyrimidylamide dihydrochloride], the IC50 against human plasmin [1] was 1000 µM; on human plasmin [2], 130 µM; on bovine thrombin (setting [3]) it was more than 1000 µM; on bovine trypsin, more than 150 µM; on human plasma kallikrein it was 55 µM; on human urokinase (setting [4]) it was more than 1000 µM.
With `COCCCNC(=O)C(Cc1cccc(Oc2ccc(Br)cn2)c1)NC(=O)[C@H]1CC[C@H](CN)CC1` (mixture of isomers) [Compound 25, N-(trans-4-aminomethylcyclohexylcarbonyl)-3-(5-bromo-2-pyridyloxy)-DL-phenylalanine 3-methoxypropylamide hydrochloride], the IC50 on human plasmin [1] is 490 µM; at human plasmin [2], 450 µM; at bovine thrombin (setting [3]), more than 1000 µM; at bovine trypsin, more than 150 µM; at human plasma kallikrein, 500 µM; on human urokinase (setting [4]), more than 1000 µM.
For `CCOC(=O)C(Cc1cccc(Oc2ccccc2)c1)NC(=O)[C@H]1CC[C@H](CN)CC1` (mixture of isomers) [Compound 57, N-(trans-4-aminomethylcyclohexylcarbonyl)-3-phenoxy-DL-phenylalanine ethyl ester hydrochloride], the IC50 was 260 µM on human plasmin [1]; 110 µM at human plasmin [2]; more than 1000 µM on bovine thrombin (setting [3]); 25 µM at bovine trypsin; 5.7 µM on human plasma kallikrein; 350 µM on human urokinase (setting [4]).
Consider `Cc1ccc(NC(=O)C(Cc2cccc(Oc3ccccc3)c2)NC(=O)[C@H]2CC[C@H](CN)CC2)cc1` (stereo partly drawn) [Compound 1], for which the IC50 at human plasmin [1] is 46 µM; at human plasmin [2], 15 µM; on bovine thrombin, more than 100 µM; on bovine trypsin, 15 µM; on human plasma kallikrein, 1.3 µM; on human urokinase, more than 100 µM.
As to `CCOC(=O)c1cccc(NC(=O)C(Cc2cccc(Oc3ccccc3)c2)NC(=O)[C@H]2CC[C@H](CN)CC2)c1` (stereo partly drawn) [Compound 3], the IC50 is 31 µM against human plasmin [1]; 11 µM at human plasmin [2]; more than 100 µM at bovine thrombin (setting [3]); 2.3 µM on bovine trypsin; 1.2 µM at human plasma kallikrein; more than 100 µM on human urokinase (setting [4]).
For the compound `NC[C@H]1CC[C@H](C(=O)NC(Cc2cccc(Oc3ccccc3)c2)C(=O)Nc2ccccn2)CC1` (stereo partly drawn) [Compound 6], the IC50 was 360 µM on human plasmin [1]; 190 µM at human plasmin [2]; more than 500 µM on bovine thrombin; more than 15 µM at bovine trypsin; 11 µM at human plasma kallikrein; more than 500 µM at human urokinase (setting [4]).
`NC[C@H]1CC[C@H](C(=O)NC(Cc2cccc(Oc3ccccc3)c2)C(=O)NCC(=O)c2ccccc2)CC1` (stereo partly drawn) [Compound 15]: the IC50 on human plasmin [1] is more than 100 µM; on human plasmin [2], more than 100 µM; at bovine thrombin (setting [3]) it was more than 100 µM; on bovine trypsin it was more than 150 µM; at human plasma kallikrein, more than 200 µM; on human urokinase (setting [4]), more than 100 µM.
Turning to `COC(=O)[C@@H](C)NC(=O)C(Cc1cccc(Oc2ccccc2)c1)NC(=O)[C@H]1CC[C@H](CN)CC1` (stereo partly drawn) [Compound 16], the IC50 against human plasmin [1] was more than 1000 µM; on human plasmin [2], more than 1000 µM; at bovine thrombin (setting [3]) it was more than 1000 µM; at bovine trypsin it was more than 150 µM; at human plasma kallikrein it was more than 1000 µM; at human urokinase (setting [4]) it was more than 500 µM.
Regarding `NC[C@H]1CC[C@H](C(=O)NC(Cc2cccc(Oc3ccccc3)c2)C(=O)N2CCC(C(=O)O)CC2)CC1` (stereo partly drawn) [Compound 17], the IC50 on human plasmin [1] was 1000 µM; at human plasmin [2], 570 µM; at bovine thrombin (setting [3]), more than 1000 µM; at bovine trypsin, more than 150 µM; on human plasma kallikrein, more than 1000 µM; on human urokinase (setting [4]), more than 500 µM.
With `CCOC(=O)C1CCN(C(=O)C(Cc2cccc(Oc3ccccc3)c2)NC(=O)[C@H]2CC[C@H](CN)CC2)CC1` (stereo partly drawn) [Compound 18], the IC50 was 430 µM against human plasmin [1]; more than 100 µM on human plasmin [2]; more than 100 µM on bovine thrombin (setting [3]); more than 150 µM on bovine trypsin; more than 500 µM at human plasma kallikrein; more than 1000 µM at human urokinase (setting [4]).
